Measurements: patent US9260408B2, “Dihydroquinoline-2-one derivatives” (Hoffmann-La Roche Inc., priority 2011, dated 2016)
Where a name gives a salt, the structure may show the parent alone.

Key:
[1] = target: T1, human CYP11B2 (Homo sapiens, UniProt P19099); assay: G-402 cellular enzyme assay, human CYP11B2 (aldosterone release, HTRF); format: cell-based; details: G-402 cells expressing human CYP11B2; 1 μM Deoxycorticosterone
T1 construct: expressed in transfected cells
T1 sequence (P19099 25-503): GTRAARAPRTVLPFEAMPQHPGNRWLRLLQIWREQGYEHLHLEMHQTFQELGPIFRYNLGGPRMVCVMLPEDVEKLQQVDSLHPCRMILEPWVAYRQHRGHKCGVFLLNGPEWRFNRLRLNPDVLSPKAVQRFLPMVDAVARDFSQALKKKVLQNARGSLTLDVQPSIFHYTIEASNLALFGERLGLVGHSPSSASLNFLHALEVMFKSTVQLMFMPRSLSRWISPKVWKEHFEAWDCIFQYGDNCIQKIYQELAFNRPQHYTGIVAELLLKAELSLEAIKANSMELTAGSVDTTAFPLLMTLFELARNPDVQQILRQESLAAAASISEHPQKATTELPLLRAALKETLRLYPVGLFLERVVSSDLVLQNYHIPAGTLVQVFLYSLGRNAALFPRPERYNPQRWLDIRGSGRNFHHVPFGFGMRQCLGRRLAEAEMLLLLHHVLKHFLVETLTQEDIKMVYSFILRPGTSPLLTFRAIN
How it was run: (§1)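 EC50 comes from least-squares fitting of a 4-parameter MMF curve to steroid product levels, measured by HTRF as aldosterone for CYP11B2 or cortisol for CYP11B1. Stably transfected G-402 host cells were given substrate (1 μM deoxycorticosterone or deoxycortisol, respectively) with inhibitor for 16 h in medium with 2.5% charcoal-treated FCS.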

[2] = target: T2, human CYP11B1 (Homo sapiens, UniProt P15538); assay: G-402 cellular enzyme assay, human CYP11B1 (cortisol release, HTRF); format: cell-based; details: G-402 cells expressing human CYP11B1; 1 μM Deoxycortisol
T2 construct: expressed in transfected cells
T2 sequence (P15538 25-503): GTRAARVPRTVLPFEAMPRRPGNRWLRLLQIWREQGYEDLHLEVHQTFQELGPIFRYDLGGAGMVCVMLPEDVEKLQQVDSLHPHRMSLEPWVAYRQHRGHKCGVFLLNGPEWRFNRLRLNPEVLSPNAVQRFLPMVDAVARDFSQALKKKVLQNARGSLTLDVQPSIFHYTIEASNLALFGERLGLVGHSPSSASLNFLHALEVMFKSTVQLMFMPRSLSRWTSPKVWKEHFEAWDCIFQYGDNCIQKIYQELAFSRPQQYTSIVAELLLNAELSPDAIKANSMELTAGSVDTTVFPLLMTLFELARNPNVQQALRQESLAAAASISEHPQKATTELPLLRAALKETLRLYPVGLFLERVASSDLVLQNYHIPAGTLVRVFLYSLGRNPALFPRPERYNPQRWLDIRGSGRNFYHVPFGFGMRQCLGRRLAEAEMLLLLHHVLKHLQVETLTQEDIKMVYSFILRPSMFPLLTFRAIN
How it was run: as §1

EC50 [1] [nM] | EC50 [2] [nM] | Compound
35 | 850 | CCS(=O)(=O)N1CC[C@@H](Oc2cncc(-c3ccc4c(c3)CCC(=O)N4C)c2)C1 [Example 169, 6-[5-((R)-1-Ethanesulfonyl-pyrrolidin-3-yloxy)-pyridin-3-yl]-1-methyl-3,4-dihydro-1H-quinolin-2-one]
29 | 4800 | CN1C(=O)CCc2cc(-c3cncc(CNC(=O)c4cc(Cl)nnc4Cl)c3)c(F)cc21 [Example 132]
1 | 56 | CCS(=O)(=O)N(C)CCOc1cncc(-c2ccc3c(c2)CCC(=O)N3C)c1 [Example 195, Ethanesulfonic acid methyl-{2-[5-(1-methyl-2-oxo-1,2,3,4-tetrahydro-quinolin-6-yl)-pyridin-3-yloxy]-ethyl}-amide]
35 | 1120 | CN1C(=O)CCc2cc(-c3cncc(CNC(=O)c4ncccn4)c3)ccc21 [Example 99]
17 | 575 | CN1C(=O)CCc2cc(-c3cncc(CN)c3)c(F)cc21 [Example 73, 6-(5-Aminomethyl-pyridin-3-yl)-7-fluoro-1-methyl-3,4-dihydro-1H-quinolin-2-one]
81 | 2500 | CN1C(=O)CCc2cc(-c3cncc(O[C@H]4CC[C@H](N)CC4)c3)ccc21 [Example 71, 6-[5-((trans)-4-amino-cyclohexyloxy)-pyridin-3-yl]-1-methyl-3,4-dihydro-1H-quinolin-2-one hydrochloride]
1 | 69 | CCS(=O)(=O)N[C@H]1CC[C@H](Oc2cncc(-c3ccc4c(c3)CCC(=O)N4C)c2)CC1 [Example 172, Ethanesulfonic acid {(trans)-4-[5-(1-methyl-2-oxo-1,2,3,4-tetrahydro-quinolin-6-yl)-pyridin-3-yloxy]-cyclohexyl}-amide]
109 | 4660 | CCS(=O)(=O)NCc1cncc(-c2cc3c4c(c2)CCC(=O)N4CCC3)c1 [Example 235, Ethanesulfonic acid [5-(3-oxo-2,3,6,7-tetrahydro-1H,5H-pyrido[3,2,1-ij]quinolin-9-yl)-pyridin-3-ylmethyl]-amide]
423 | 12300 | CC(N)c1cncc(-c2ccc3c(c2)CCC(=O)N3C)c1 (single isomer, unassigned) [Example 64, 6-[5-((S or R)-1-Amino-ethyl)-pyridin-3-yl]-1-methyl-3,4-dihydro-1H-quinolin-2-one hydrochloride]
1 | 6 | CC(NC(=O)c1ncccc1Cl)c1cncc(-c2ccc3c(c2)CCC(=O)N3C)c1Cl (single isomer, unassigned) [Example 251, 3-Chloro-pyridine-2-carboxylic acid {(R or S)-1-[4-chloro-5-(1-methyl-2-oxo-1,2,3,4-tetrahydro-quinolin-6-yl)-pyridin-3-yl]-ethyl}-amide]
11 | 1770 | Cc1c(CN)cncc1-c1cc2c(cc1F)N(C)C(=O)CC2 [Example 226, 6-(5-Aminomethyl-4-methyl-pyridin-3-yl)-7-fluoro-1-methyl-3,4-dihydro-1H-quinolin-2-one hydrochloride]
15 | 2930 | CN1C(=O)CCc2cc(-c3cncc(OCCNC(=O)c4cnn(C)c4)c3)ccc21 [Example 103]
14 | 261 | CC(N[S@+]([O-])C(C)(C)C)c1cncc(-c2ccc3c(c2)CCC(=O)N3C)c1Cl (single isomer, unassigned) [Example 249, (R)-2-Methyl-propane-2-sulfinic acid {(R or S)-1-[4-chloro-5-(1-methyl-2-oxo-1,2,3,4-tetrahydro-quinolin-6-yl)-pyridin-3-yl]-ethyl}-amide]
12 | 400 | Cc1noc(C)c1C(=O)NCc1cncc(-c2cc3c(cc2F)N(C)C(=O)CC3)c1 [Example 127]
856 | 19900 | Cc1noc(C)c1C(=O)NCc1cncc(-c2ccc3c(c2)CCC(=O)N3)c1 [Example 141, 3,5-Dimethyl-isoxazole-4-carboxylic acid [5-(2-oxo-1,2,3,4-tetrahydro-quinolin-6-yl)-pyridin-3-ylmethyl]-amide]
227 | 9740 | CCS(=O)(=O)N(Cc1cncc(-c2ccc3c(c2)CCC(=O)N3C)c1)C(C)C [Example 184, Ethanesulfonic acid isopropyl-[5-(1-methyl-2-oxo-1,2,3,4-tetrahydro-quinolin-6-yl)-pyridin-3-ylmethyl]-amide]

EC50 [1] [nM] | EC50 [2] [nM] | Compound
40 | 1560 | CCC(=O)NCCOc1cncc(-c2ccc3c(c2)CCC(=O)N3C)c1 [Example 43, N-{2-[5-(1-Methyl-2-oxo-1,2,3,4-tetrahydro-quinolin-6-yl)-pyridin-3-yloxy]-ethyl}-propionamide]
117 | 8460 | CCS(=O)(=O)NC(c1cncc(-c2ccc3c(c2)CCC(=O)N3C)c1)C1CC1 (racemic) [Example 177, (rac)-Ethanesulfonic acid {cyclopropyl-[5-(1-methyl-2-oxo-1,2,3,4-tetrahydro-quinolin-6-yl)-pyridin-3-yl]-methyl}-amide]
10 | 237 | CCC1(NCc2cncc(-c3ccc4c(c3)CCC(=O)N4C)c2)COC1 [Example 206, 6-{5-[(3-Ethyl-oxetan-3-ylamino)-methyl]-pyridin-3-yl}-1-methyl-3,4-dihydro-1H-quinolin-2-one]
76 | 410 | CN1C(=O)CCc2cc(-c3cncc(N4CCC[C@H]4Cn4cncn4)c3)ccc21 [Example 11]
1 | 154 | Cc1oncc1C(=O)NCc1cncc(-c2cc3c(cc2F)N(C)C(=O)CC3)c1C [Example 259, 5-Methyl-isoxazole-4-carboxylic acid [5-(7-fluoro-1-methyl-2-oxo-1,2,3,4-tetrahydro-quinolin-6-yl)-4-methyl-pyridin-3-ylmethyl]-amide]
8 | 20 | COc1ncc(C(=O)NCc2cncc(-c3ccc4c(c3)CCC(=O)N4C)c2)cn1 [Example 82]
9 | 535 | CCC(=O)N1CC[C@H](Oc2cncc(-c3cc4c(cc3F)N(C)C(=O)CC4)c2)C1 [Example 122]
27 | 2260 | CCS(=O)(=O)NCc1cncc(-c2cc3c4c(c2)CCN4C(=O)CC3)c1 [Example 234, Ethanesulfonic acid [5-(4-oxo-1,2,5,6-tetrahydro-4H-pyrrolo[3,2,1-ij]quinolin-8-yl)-pyridin-3-ylmethyl]-amide]
715 | > 3000 | CN1C(=O)CCc2cc(-c3cncc(NC(=O)CO)c3)ccc21 [Example 3, 2-Hydroxy-N-[5-(1-methyl-2-oxo-1,2,3,4-tetrahydro-quinolin-6-yl)-pyridin-3-yl]-acetamide]
10 | 94 | CN1C(=O)CCc2cc(-c3cncc(CNC(=O)c4ccc(Cl)nn4)c3)ccc21 [Example 104]
5 | 513 | CN1C(=O)CCc2cc(-c3cncc(OCCN)c3)c(F)cc21 [Example 238, 6-[5-(2-Amino-ethoxy)-pyridin-3-yl]-7-fluoro-1-methyl-3,4-dihydro-1H-quinolin-2-one hydrochloride]
26 | 393 | CC(N[S@+]([O-])C(C)(C)C)c1cncc(-c2ccc3c(c2)CCC(=O)N3C)c1 (single isomer, unassigned) [Example 57, (R)-2-Methyl-propane-2-sulfinic acid {(R or S)-1-[5-(1-methyl-2-oxo-1,2,3,4-tetrahydro-quinolin-6-yl)-pyridin-3-yl]-ethyl}-amide]
170 | 10200 | CC(C)[C@H](CO)Nc1cncc(-c2ccc3c(c2)CCC(=O)N3C)c1 [Example 30, 6-[5-((R)-1-Hydroxymethyl-2-methyl-propylamino)-pyridin-3-yl]-1-methyl-3,4-dihydro-1H-quinolin-2-one]
114 | 1430 | Cc1noc(C)c1S(=O)(=O)NCc1cncc(-c2ccc3c(c2)CCC(=O)N3C)c1 [Example 154, 3,5-Dimethyl-isoxazole-4-sulfonic acid [5-(1-methyl-2-oxo-1,2,3,4-tetrahydro-quinolin-6-yl)-pyridin-3-ylmethyl]-amide]
1260 | > 10000 | O=C1CCc2nc(-c3cccnc3)ccc2N1 [Example 33, 6-Pyridin-3-yl-3,4-dihydro-1H-[1,5]naphthyridin-2-one]
